# Assay results reported in patent US20210015883A1, “A NOVEL SYNERGIC HERBAL FORMULATION FOR THE PREVENTION AND TREATMENT OF PRE-DIABETES, DIABETES AND OTHER INSULIN RESISTANCE CASES” (priority 2018, published 2021).
# Experiments:
# [1] = system: high fat diet and Streptozotocin (stz) induced insulin resistance in rats; assay: HOMA-IR insulin resistance index in high fat diet + STZ rats; type: in vivo, Albino Wistar rats; conditions: HFD+STZ rats
# Protocol: (§1) After 2 weeks of dietary manipulation, the group of rats fed with HFD were injected a single low dose of STZ (40 mg/kg, i.p), while the Normal control rats were given the vehicle citrate buffer (pH 4.4) in a dose volume of 1 mL/kg, i.p. The fasting blood glucose (FBG) were measured 3 days after the STZ injection. […] The rats were allowed to continue to feed on their respective diets until the end of the study. All FBG and insulin levels were determined on different days viz. 18th day (3rd day after STZ injection), 25th, 32nd, 39th and 45th days (24 h after the previous dose) by collecting blood from the tail vein/retro orbital plexus. On the 44th day Oral Glucose Tolerance Test (OGTT) was performed wherein animals of all groups received glucose solution (1.5 g/kg) 30 minutes after the above treatments. Blood glucose and insulin levels were determined at 0, 30, 60, 90, 120 min after glucose administration. Blood glucose levels were measured using a digital glucometer. Insulin was assayed by using a RIA kit.
# Insulin resistance is calculated using the following methods: […]
# HOMA is a model of the relationship of glucose and insulin dynamics that predicts fasting steady-state glucose and insulin concentrations for a wide range of possible combinations of insulin resistance and β-cell function. Insulin levels depend on the pancreatic β-cell response to glucose concentrations while, glucose concentrations are regulated by insulin-mediated glucose production via the liver. Thus, deficient β-cell function will echo a diminished response of β-cell to glucose-stimulated insulin secretion. Similarly, insulin resistance is reflected by the diminished suppressive effect of insulin on hepatic glucose production. […] HOMA describes this glucose-insulin homeostasis by means of a set of simple, mathematically-derived nonlinear equations. The approximating equation for insulin resistance has been simplified; it uses a fasting blood sample. It is derived from the use of the insulin-glucose product, divided by a constant.
# The product of FPG×FPI is an index of hepatic insulin resistance.
# I0—Fasting plasma insulin concentration (mIU/L), G0—Fasting plasma glucose concentration (mg/dL),
# [2] = system: high fat diet and Streptozotocin (stz) induced insulin resistance in rats; assay: Matsuda index from OGTT in high fat diet + STZ rats; type: in vivo, Albino Wistar rats; conditions: Metformin 120 mg/kg p.o., HFD+STZ rats, value less than 4.3 indicates insulin resistance
# Protocol: as §1
# [3] = system: high fat diet and Streptozotocin (stz) induced insulin resistance in rats; assay: QUICKI insulin sensitivity index in high fat diet + STZ rats; type: in vivo, Albino Wistar rats; conditions: HFD+STZ rats
# Protocol: (§2) The rats were allocated into dietary regimens by feeding HFD (58% fat, 25% protein and 17% carbohydrate, as a percentage of total kcal) and drinking water ad libitum, respectively, for the initial period of 2 weeks. After 2 weeks of dietary manipulation, the group of rats fed with HFD were injected a single low dose of STZ (40 mg/kg, i.p), while the Normal control rats were given the vehicle citrate buffer (pH 4.4) in a dose volume of 1 mL/kg, i.p. The fasting blood glucose (FBG) were measured 3 days after the STZ injection. The rats with FBG of more than 250 mg/dL were considered diabetic and selected for further pharmacological studies and their dosing with the Herbal formulations commenced and continued for the next 28 days. The rats were allowed to continue to feed on their respective diets until the end of the study. All FBG and insulin levels were determined on different days viz. 18th day (3rd day after STZ injection), 25th, 32nd, 39th and 45th days (24 h after the previous dose) by collecting blood from the tail vein/retro orbital plexus. On the 44th day Oral Glucose Tolerance Test (OGTT) was performed wherein animals of all groups received glucose solution (1.5 g/kg) 30 minutes after the above treatments. Blood glucose and insulin levels were determined at 0, 30, 60, 90, 120 min after glucose administration. Blood glucose levels were measured using a digital glucometer. Insulin was assayed by using a RIA kit.
# Quantitative insulin sensitivity check index (QUICKI) is an empirically-derived mathematical transformation of fasting blood glucose and plasma insulin concentrations that provide a consistent and precise ISI with a better positive predictive power. It is simply a variation of HOMA equations, as it transforms the data by taking both the logarithm and the reciprocal of the glucose-insulin product, thus slightly skewing the distribution of fasting insulin values. […] It employs the use of fasting values of insulin and glucose as in HOMA calculations. QUICKI is virtually identical to the simple equation form of the HOMA model in all aspects, except that a log transform of the insulin glucose product is employed to calculate QUICKI. The QUICKI can be determined from fasting plasma glucose (mg/dl) and insulin (μIU/ml) concentrations.
# QUICKI values range between 0.45 in healthy individuals (noted as unusually healthy in the original study) and 0.30 in diabetics. Lower values reflect greater resistance with values below 0.339 indicating insulin resistance.
# [4] = system: high fat diet and Streptozotocin (stz) induced insulin resistance in rats; assay: Oral glucose tolerance test (OGTT) on day 44 in high fat diet + STZ rats; type: in vivo, Albino Wistar rats; conditions: Metformin 120 mg/kg p.o., HFD+STZ rats
# Protocol: (§3) Evaluation of antidiabetic effect of herbal formulation against high fat diet and Streptozotocin (stz) induced insulin resistance in rats.
# (§4) Group III Herbal formulation I as per Example 4 (500 mg): Received HFD throughout the experiment (45 days), STZ (40 mg/kg, i.p) on the 15th day of start of experiment and the Herbal formulation (500 mg/kg, p.o) from the 18th day for the next 28 days.
# (§5) Group IV Herbal formulation II as per Example 4 (1000 mg): Received HFD throughout the experiment (45 days), STZ (40 mg/kg, i.p) on the 15th day of start of experiment and the Herbal formulation (1000 mg/kg, p.o) from the 18th day for the next 28 days.
# (§6) Group V Reference standard: Receive HFD throughout the experiment (45 days), STZ (40 mg/kg, i.p) on the 15th day of start of experiment and Metformin, (120 mg/kg) from the 18th day for the next 28 days.
# as §2
# (§7) √—Correction of the nonlinear values distribution. • A. Animals used: 40 • B. Species/Common name: Albino Wistar rats • C. Age/weight/size: Ten weeks, 150-180 g • D. Gender: Male • E. Number to be used (Year-wise breakups and total figures needed to be given): 40 • F. Number of days each animal will be housed: 3 months • G. Details of injections schedule: • H. Details of withdrawal: • Volumes: 2 mL per animal by retro-orbital plexus for insulin assay and 0.1 mL by tail vein for blood glucose. • I. Sites: Retro-orbital plexus, tail vein
# [5] = system: high fat diet and Streptozotocin (stz) induced insulin resistance in rats; assay: Insulin levels in high fat diet + STZ rats (RIA); type: in vivo, Albino Wistar rats; conditions: HFD+STZ rats
# Protocol: as §3
# (§8) Rats were divided 5 into groups of 8 rats each and treated in the following way:
# as §4, §5, §6, §2, §7
# [6] = system: high fat diet and Streptozotocin (stz) induced insulin resistance in rats; assay: Fasting blood glucose levels in high fat diet + STZ rats; type: in vivo, Albino Wistar rats
# Protocol: as §3, §8
# Group I Normal control group—Received normal chow diet and drinking water daily for 45 days and citrate buffer (1 mL/kg, i.p) on the 15th day of start of experiment.
# Group II Toxicant Control: Received HFD throughout the experiment (45 days) and STZ (40 mg/kg, i.p) on the 15th day of start of experiment.
# as §4, §5, §6, §2, §7
# PPAR gamma = PPAR gamma gene expression by Real Time PCR in differentiated 3T3L1 adipocytes; type: cell-based; conditions: SC = Pioglitazone 6 μg/ml, 12th day, control = 1
# Protocol: Samples of Herbal formulation were evaluated over a concentration range from 0.5 to 10 μg/ml. Pioglitazone, a known anti-diabetic agent was used as the standard control at a dose of 6 μg/ml; a dose extrapolated from the median therapeutic human dose. The Herbal formulation was dissolved in NAOH (0.1N).
# Viability studies were carried out to eliminate cytotoxic concentrations of the samples using MTT assay. Based on the results of the MTT assay, the following concentrations were used for the PPAR Expression studies. Concentration selected was as follows 2.5, 5, 10 μg/ml.
# 3T3L1 Fibroblasts were grown in DMEM medium, supplemented with 10% FBS, in a humidified atmosphere of 5% CO2 at 370 C. […]
# On the 12th day after differentiation, total RNA was extracted with TRIzol reagent according to the manufacturer's instructions from the differentiated adipocytes. The concentration and purity of RNA were determined by measuring the absorbance at 260 nm (A260) and the ratio of the absorbance at 260 nm to the absorbance at 280 nm (A260/A280), respectively. […] SYBR Green chemistry was used to perform the quantitative determination of the relative expression of PPAR gene. The PPAR gene was analyzed using the Rotogene Q; Qiagen real-time polymerase chain reaction machine. […]
# [7] = Metformin 120 mg/kg p.o. group, Day 18 (start of treatment)
# [8] = Metformin 120 mg/kg p.o., Day 25
# [9] = Metformin 120 mg/kg p.o., Day 32
# [10] = Metformin 120 mg/kg p.o., Day 39
# [11] = Metformin 120 mg/kg p.o., Day 45
smiles,measurement,setting,value
CN(C)C(=N)N=C(N)N [Metformin],HOMA-IR,[1]; [7],31.7 ± 4.75
same,HOMA-IR,[1]; [8],9.91 ± 0.69
same,HOMA-IR,[1]; [9],15.8 ± 2.76
same,HOMA-IR,[1]; [10],10.56 ± 1.7
same,HOMA-IR,[1]; [11],5.81 ± 0.39
same,Matsuda Index,[2],12.56
same,QUICKI,[3]; [7],0.24 ± 0.0057
same,QUICKI,[3]; [8],0.276 ± 0.0021
same,QUICKI,[3]; [9],0.26 ± 0.0042
same,QUICKI,[3]; [10],0.27 ± 0.0055
same,QUICKI,[3]; [11],0.29 ± 0.0030
same,OGTT Glucose,[4]; 0 Min after glucose 1.5 g/kg,129.5 ± 1.17 mg/dL
same,OGTT Insulin,[4]; 0 Min after glucose 1.5 g/kg,13.12 ± 0.97 mIU/L
same,OGTT Glucose,[4]; 30 Min after glucose 1.5 g/kg,249.50 ± 0.56 mg/dL
same,OGTT Insulin,[4]; 30 Min after glucose 1.5 g/kg,27.308 ± 1.4 mIU/L
same,OGTT Glucose,[4]; 90 Min after glucose 1.5 g/kg,185.167 ± 2.08 mg/dL
same,OGTT Insulin,[4]; 90 Min after glucose 1.5 g/kg,22.72 ± 1.49 mIU/L
same,OGTT Glucose,[4]; 120 Min after glucose 1.5 g/kg,149.83 ± 2.81 mg/dL
same,OGTT Insulin,[4]; 120 Min after glucose 1.5 g/kg,14.95 ± 1.035 mIU/L
same,Insulin level,"[5]; Metformin 120 mg/kg p.o. group, date printed as ""—"" (first reading)",31.56 ± 1.95 mIU/L
same,Insulin level,[5]; [8],22.56 ± 2.24 mIU/L
same,Insulin level,[5]; [9],27.84 ± 5.014 mIU/L
same,Insulin level,[5]; [10],23.40 ± 3.47 mIU/L
same,Insulin level,[5]; [11],15.36 ± 0.58 mIU/L
same,course of BGL over 4 weeks of treatment (in words),[6]; HFD+STZ rats,gradual decrease in BGL
same,Blood glucose level,"[6]; Metformin 120 mg/kg p.o. group, HFD+STZ rats, Day 1 (before treatment, dosing from day 18)",126.87 ± 2.41 mg/dL
same,Blood glucose level,"[6]; Metformin 120 mg/kg p.o. group, HFD+STZ rats, Day 7 (before treatment)",138.63 ± 1.54 mg/dL
same,Blood glucose level,"[6]; Metformin 120 mg/kg p.o. group, HFD+STZ rats, Day 15 (before treatment)",156.37 ± 3.17 mg/dL
same,Blood glucose level,"[6]; Metformin 120 mg/kg p.o. group, HFD+STZ rats, Day 18 (3rd day after STZ, start of treatment)",396.67 ± 43.72 mg/dL
same,Blood glucose level,"[6]; Metformin 120 mg/kg p.o., HFD+STZ rats, Day 25",183.167 ± 13.58 mg/dL
same,Blood glucose level,"[6]; Metformin 120 mg/kg p.o., HFD+STZ rats, Day 32",245.167 ± 28.86 mg/dL
same,Blood glucose level,"[6]; Metformin 120 mg/kg p.o., HFD+STZ rats, Day 39",191.83 ± 25.08 mg/dL
same,Blood glucose level,"[6]; Metformin 120 mg/kg p.o., HFD+STZ rats, Day 45",152.83 ± 8.40 mg/dL
same,BGL at the end of the study compared with the HFD+STZ group (in words),[6]; treatment groups,significantly lower
CCc1ccc(CCOc2ccc(CC3SC(=O)NC3=O)cc2)nc1 (centres unmarked) [Pioglitazone],2^-DDCT (relative PPAR gamma mRNA expression),PPAR gamma,2.292
